Experimental data as given in US20230167094A1, “H4 ANTAGONIST COMPOUNDS” (Heptares Therapeutics Limited, priority 2020, published 2023).

Key:
human H4 receptor = biological target: T1, human H4 receptor (Homo sapiens, UniProt Q9H3N8); assay: H4 Antagonist Functional Dynamic Mass Redistribution Assay; assay type: cell-based; conditions: HEKf cells expressing human H4 receptor, antagonist mode vs histamine EC80, pKb by Cheng-Prusoff; for Kb: read-out: Human H4 DMR fpKb (converted)
T1 construct: expressed in transfected cells; host or cells: HEKf cells infected with baculovirus
Procedure: H4 Antagonist Functional Dynamic Mass Redistribution Assay
HEKf cells were infected using baculovirus expressing the human H4 receptor, plated into fibronectin-coated EPIC plates at a density of 10,000 cells/well and incubated overnight at 37° C. The medium on cells was changed to […] HBSS with 20 mM HEPES per well and 30 nL DMSO were added per well by LabCyte ECHO acoustic dispensing. Following 2 h equilibration at room temperature, 30 nL of H4 ligands prepared in DMSO were stamped by LabCyte ECHO acoustic dispensing into seeded EPIC plates and cellular dynamic mass redistribution was monitored using a Corning EPIC plate reader. Following 45 min measurement, 30 nL/well of histamine EC80 was added and monitored to obtain antagonist assay data. Maximum baseline-corrected responses in pm were used to generate concentration response curves. EC50 values were generated using a 4-parameter logistical fit equation to quantify agonist potencies. Functional antagonist affinity values were generated using the Cheng-Prusoff equation to calculate a pKb value using the antagonist assay data.

hERG = hERG (Homo sapiens, UniProt Q12809); assay: hERG assay (QPatch automated patch clamp, CHO cells); assay type: cell-based; conditions: CHO cells stably expressing hERG, 1, 3, 10 and 30 μM, tail current, room temperature; for IC50: read-out: hERG pIC50 (converted)
Chain of hERG (Q12809 whole entry): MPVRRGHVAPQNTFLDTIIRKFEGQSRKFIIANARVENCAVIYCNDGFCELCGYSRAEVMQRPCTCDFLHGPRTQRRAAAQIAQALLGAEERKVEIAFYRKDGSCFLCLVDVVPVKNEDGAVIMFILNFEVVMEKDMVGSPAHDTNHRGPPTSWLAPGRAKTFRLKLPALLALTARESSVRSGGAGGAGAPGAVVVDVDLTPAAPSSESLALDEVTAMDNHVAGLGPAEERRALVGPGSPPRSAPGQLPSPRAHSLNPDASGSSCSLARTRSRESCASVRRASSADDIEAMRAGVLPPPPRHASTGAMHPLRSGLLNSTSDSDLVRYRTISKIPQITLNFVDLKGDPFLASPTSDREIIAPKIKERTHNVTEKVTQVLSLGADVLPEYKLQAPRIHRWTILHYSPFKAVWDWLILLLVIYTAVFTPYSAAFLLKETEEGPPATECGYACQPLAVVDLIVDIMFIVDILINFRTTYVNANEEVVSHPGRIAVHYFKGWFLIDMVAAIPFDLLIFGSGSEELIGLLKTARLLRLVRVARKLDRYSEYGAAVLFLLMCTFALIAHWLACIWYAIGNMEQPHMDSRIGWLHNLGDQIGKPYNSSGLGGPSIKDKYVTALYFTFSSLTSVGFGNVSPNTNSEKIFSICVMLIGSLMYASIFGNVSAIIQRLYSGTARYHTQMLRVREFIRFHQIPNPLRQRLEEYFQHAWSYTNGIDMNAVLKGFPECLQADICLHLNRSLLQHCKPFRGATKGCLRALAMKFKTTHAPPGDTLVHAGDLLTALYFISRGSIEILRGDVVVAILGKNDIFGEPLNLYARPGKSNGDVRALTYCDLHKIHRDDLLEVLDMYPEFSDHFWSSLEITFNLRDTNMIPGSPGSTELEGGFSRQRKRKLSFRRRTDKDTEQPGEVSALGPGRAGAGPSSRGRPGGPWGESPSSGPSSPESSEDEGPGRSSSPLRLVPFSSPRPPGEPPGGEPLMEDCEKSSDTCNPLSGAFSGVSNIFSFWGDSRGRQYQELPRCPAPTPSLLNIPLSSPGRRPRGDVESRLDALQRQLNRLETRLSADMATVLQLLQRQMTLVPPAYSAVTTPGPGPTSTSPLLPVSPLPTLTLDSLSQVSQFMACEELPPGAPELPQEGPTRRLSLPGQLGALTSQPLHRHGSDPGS
Procedure: All experiments were performed on the QPatch automated patch clamp platform.
Series resistance (4-15 MΩ) was compensated by >80%.

| Kb (human H4 receptor) | SMILES | IC50 (hERG) | Human H4 DMR fpKb (human H4 receptor) | hERG pIC50 (hERG) |
| --- | --- | --- | --- | --- |
| 12.6 nM | Cc1cc(C)c2nc(-c3cnc(NCCCC4CCN(C)CC4)nc3C)[nH]c2c1 [Toreforant, reference compound] | 3160 nM | – | – |
| 12.6 nM | Nc1nc(-c2cnn(C(F)(F)F)c2)cc(N2CC(N)C2)n1 [Example 6, 4-(3-Aminoazetidin-1-yl)-6-(1-(trifluoromethyl)-1H-pyrazol-4-yl)pyrimidin-2-amine] | > 100000 nM | – | – |
| 7.94 nM | CNC1CN(c2cc(-c3nn(C)cc3C)nc(N)n2)C1 [Example 8, 4-(1,4-Dimethyl-1H-pyrazol-3-yl)-6-(3-(methylamino)azetidin-1-yl)pyrimidin-2-amine] | 23400 nM | – | – |
| 1.58 nM | CNC1CN(c2cc(-c3cn(C)nc3Cl)nc(N)n2)C1 [Example 29, 4-(3-Chloro-1-methyl-1H-pyrazol-4-yl)-6-(3-(methylamino)azetidin-1-yl)pyrimidin-2-amine] | > 100000 nM | – | – |
| 1.26 nM | CNC1CN(c2cc(-c3cnn(C(F)F)c3)nc(N)n2)C1 [Example 1, 4-(1-(Difluoromethyl)-1H-pyrazol-4-yl)-6-(3-(methylamino)azetidin-1-yl)pyrimidin-2-amine] | > 100000 nM | – | – |
| 3.98 nM | CCn1cc(-c2cc(N3CC(NC)C3)nc(N)n2)cn1 [Example 3, 4-(1-Ethyl-1H-pyrazol-4-yl)-6-(3-(methylamino)azetidin-1-yl)pyrimidin-2-amine] | > 100000 nM | – | – |
| – | CC(C)c1cc(N2CC[C@@H](N)C2)nc(N)n1 [JNJ-39758979, reference compound] | – | 8.5 | ≤4.0 |
| 15.8 nM | CNC1CN(c2cc(-c3cnn(CC(F)(F)F)c3)nc(N)n2)C1 [Example 2, 4-(3-(Methylamino)azetidin-1-yl)-6-(1-(2,2,2-trifluoroethyl)-1H-pyrazol-4-yl)pyrimidin-2-amine] | > 100000 nM | – | – |
| 7.94 nM | CNC1CN(c2cc(-c3cnn(C(C)C)c3C)nc(N)n2)C1 [Example 22, 4-(1-Isopropyl-5-methyl-1H-pyrazol-4-yl)-6-(3-(methylamino)azetidin-1-yl)pyrimidin-2-amine] | > 100000 nM | – | – |
| 1 nM | CNC1CN(c2cc(-c3n[nH]c(C(F)(F)F)c3C)nc(N)n2)C1 [Example 17, 4-(4-Methyl-5-(trifluoromethyl)-1H-pyrazol-3-yl)-6-(3-(methylamino)azetidin-1-yl)pyrimidin-2-amine] | > 100000 nM | – | – |
| 5.01 nM | CNC1CN(c2cc(-c3cn[nH]c3)nc(N)n2)C1 [Example 38, 4-(3-(Methylamino)azetidin-1-yl)-6-(1H-pyrazol-4-yl)pyrimidin-2-amine] | > 31600 nM | – | – |
| – | CCc1[nH]nc(-c2cc(N3CC(NC)C3)nc(N)n2)c1C [Example 40, 4-(5-Ethyl-4-methyl-1H-pyrazol-3-yl)-6-(3-(methylamino)azetidin-1-yl)pyrimidin-2-amine] | > 31600 nM | – | – |
| 3.98 nM | CN[C@@H]1CCN(c2cc(-c3cnn(C)c3Cl)nc(N)n2)C1 [Example 5, (R)-4-(5-Chloro-1-methyl-1H-pyrazol-4-yl)-6-(3-(methylamino)pyrrolidin-1-yl)pyrimidin-2-amine] | > 100000 nM | – | – |
| 100 nM | CCc1cc(-c2cc(N3CC(NC)C3)nc(N)n2)n(C)n1 [Example 25, 4-(3-Ethyl-1-methyl-1H-pyrazol-5-yl)-6-(3-(methylamino)azetidin-1-yl)pyrimidin-2-amine] | – | – | – |
| 31.6 nM | CNC1CN(c2cc(-c3c[nH]nc3C(F)(F)F)nc(N)n2)C1 [Example 37, 4-(3-(Methylamino)azetidin-1-yl)-6-(3-(trifluoromethyl)-1H-pyrazol-4-yl)pyrimidin-2-amine] | > 31600 nM | – | – |
| 2 nM | CNC1CN(c2cc(-c3cnn(C(F)F)c3C)nc(N)n2)C1 [Example 16, 4-(1-(Difluoromethyl)-5-methyl-1H-pyrazol-4-yl)-6-(3-(methylamino)azetidin-1-yl)pyrimidin-2-amine] | > 100000 nM | – | – |
| 5.01 nM | CNC1CN(c2cc(-c3cnn(CCF)c3)nc(N)n2)C1 [Example 10, 4-(1-(2-Fluoroethyl)-1H-pyrazol-4-yl)-6-(3-(methylamino)azetidin-1-yl)pyrimidin-2-amine] | > 100000 nM | – | – |
| 15.8 nM | CNC1CN(c2cc(-c3cc(Cl)nn3C)nc(N)n2)C1 [Example 26, 4-(3-Chloro-1-methyl-1H-pyrazol-5-yl)-6-(3-(methylamino)azetidin-1-yl)pyrimidin-2-amine] | > 100000 nM | – | – |

| Kb (human H4 receptor) | SMILES | IC50 (hERG) | Human H4 DMR fpKb (human H4 receptor) | hERG pIC50 (hERG) |
| --- | --- | --- | --- | --- |
| 7.94 nM | CCc1cc(-c2cc(N3CC(NC)C3)nc(N)n2)n[nH]1 [Example 41, 4-(5-Ethyl-1H-pyrazol-3-yl)-6-(3-(methylamino)azetidin-1-yl)pyrimidin-2-amine] | > 31600 nM | – | – |
| 10 nM | CCn1cc(-c2cc(N3CC(NC)C3)nc(N)n2)c(C)n1 [Example 13, 4-(1-Ethyl-3-methyl-1H-pyrazol-4-yl)-6-(3-(methylamino)azetidin-1-yl)pyrimidin-2-amine] | > 100000 nM | – | – |
| 2.51 nM | CNC1CN(c2cc(-c3cn(C(F)F)nc3C)nc(N)n2)C1 [Example 4, 4-(1-(Difluoromethyl)-3-methyl-1H-pyrazol-4-yl)-6-(3-(methylamino)azetidin-1-yl)pyrimidin-2-amine] | > 100000 nM | – | – |
| 7.94 nM | CNC1CN(c2cc(-c3cnn(C)c3Cl)nc(N)n2)C1 [Example 15, 4-(5-Chloro-1-methyl-1H-pyrazol-4-yl)-6-(3-(methylamino)azetidin-1-yl)pyrimidin-2-amine] | > 100000 nM | – | – |
| 15.8 nM | CNC1CN(c2cc(-c3cc(C(F)(F)F)nn3C)nc(N)n2)C1 [Example 27, 4-(1-Methyl-3-(trifluoromethyl)-1H-pyrazol-5-yl)-6-(3-(methylamino)azetidin-1-yl)pyrimidin-2-amine] | 44700 nM | – | – |
| 6.31 nM | CNC1CN(c2cc(-c3[nH]nc(Cl)c3Cl)nc(N)n2)C1 [Example 42, 4-(4,5-Dichloro-1H-pyrazol-3-yl)-6-(3-(methylamino)azetidin-1-yl)pyrimidin-2-amine] | > 100000 nM | – | – |
| 7.94 nM | CCNC1CN(c2cc(-c3cnn(C(F)(F)F)c3)nc(N)n2)C1 [Example 7, 4-(3-(Ethylamino)azetidin-1-yl)-6-(1-(trifluoromethyl)-1H-pyrazol-4-yl)pyrimidin-2-amine] | 42700 nM | – | – |
| 0.794 nM | CN[C@@H]1CCN(c2cc(NCC3CC3)nc(N)n2)C1 [PF-3893787, reference compound] | 7940 nM | – | – |
| 100 nM | CCn1cc(-c2cc(N3CC[C@@H](NC)C3)nc(N)n2)c(C)n1 [Example 14, (R)-4-(1-Ethyl-3-methyl-1H-pyrazol-4-yl)-6-(3-(methylamino)pyrrolidin-1-yl)pyrimidin-2-amine] | 28800 nM | – | – |
| 3.98 nM | CNC1CN(c2cc(-c3c[nH]nc3C)nc(N)n2)C1 [Example 39, 4-(3-Methyl-1H-pyrazol-4-yl)-6-(3-(methylamino)azetidin-1-yl)pyrimidin-2-amine] | > 31600 nM | – | – |
| 1.58 nM | CNC1CN(c2cc(-c3cnn(C)c3Br)nc(N)n2)C1 [Example 30, 4-(5-Bromo-1-methyl-1H-pyrazol-4-yl)-6-(3-(methylamino)azetidin-1-yl)pyrimidin-2-amine] | > 100000 nM | – | – |
| 3.98 nM | CNC1CN(c2cc(-c3cc(C)[nH]n3)nc(N)n2)C1 [Example 35, 4-(5-Methyl-1H-pyrazol-3-yl)-6-(3-(methylamino)azetidin-1-yl)pyrimidin-2-amine] | > 31600 nM | – | – |
| 7.94 nM | CNC1CN(c2cc(-c3cn(C)nc3C)nc(N)n2)C1 [Example 18, 4-(1,3-Dimethyl-1H-pyrazol-4-yl)-6-(3-(methylamino)azetidin-1-yl)pyrimidin-2-amine] | > 100000 nM | – | – |
| 12.6 nM | CNC1CN(c2cc(-c3cnn(CC(F)F)c3)nc(N)n2)C1 [Example 9, 4-(1-(2,2-Difluoroethyl)-1H-pyrazol-4-yl)-6-(3-(methylamino)azetidin-1-yl)pyrimidin-2-amine] | > 100000 nM | – | – |
| – | CN1CCN(C(=O)c2cc3cc(Cl)ccc3[nH]2)CC1 [JNJ-7777120, reference compound] | ≥ 100000 nM | – | – |
| 2.51 nM | CCn1ncc(-c2cc(N3CC(NC)C3)nc(N)n2)c1C [Example 21, 4-(1-Ethyl-5-methyl-1H-pyrazol-4-yl)-6-(3-(methylamino)azetidin-1-yl)pyrimidin-2-amine] | > 100000 nM | – | – |
| 7.94 nM | CNC1CN(c2cc(-c3cnn(CC(F)(F)F)c3C)nc(N)n2)C1 [Example 12, 4-(5-Methyl-1-(2,2,2-trifluoroethyl)-1H-pyrazol-4-yl)-6-(3-(methylamino)azetidin-1-yl)pyrimidin-2-amine] | 38900 nM | – | – |
| 10 nM | CNC1CN(c2cc(-c3cn(C(C)C)nc3C)nc(N)n2)C1 [Example 11, 4-(1-Isopropyl-3-methyl-1H-pyrazol-4-yl)-6-(3-(methylamino)azetidin-1-yl)pyrimidin-2-amine] | > 100000 nM | – | – |
